Drawing on patent US20250289829A1, “DEUBIQUITINASE INHIBITOR AND USE THEREOF” (CHASER THERAPEUTICS, INC., priority 2022, published 2025), this text covers IC50 for 4 molecules.

Bounds are passed on as bounds.

In one assay the target is T1, USP25 (Homo sapiens, UniProt Q9UHP3).
T1 construct: purchased R&D Systems
T1 sequence (Q9UHP3 1-1055): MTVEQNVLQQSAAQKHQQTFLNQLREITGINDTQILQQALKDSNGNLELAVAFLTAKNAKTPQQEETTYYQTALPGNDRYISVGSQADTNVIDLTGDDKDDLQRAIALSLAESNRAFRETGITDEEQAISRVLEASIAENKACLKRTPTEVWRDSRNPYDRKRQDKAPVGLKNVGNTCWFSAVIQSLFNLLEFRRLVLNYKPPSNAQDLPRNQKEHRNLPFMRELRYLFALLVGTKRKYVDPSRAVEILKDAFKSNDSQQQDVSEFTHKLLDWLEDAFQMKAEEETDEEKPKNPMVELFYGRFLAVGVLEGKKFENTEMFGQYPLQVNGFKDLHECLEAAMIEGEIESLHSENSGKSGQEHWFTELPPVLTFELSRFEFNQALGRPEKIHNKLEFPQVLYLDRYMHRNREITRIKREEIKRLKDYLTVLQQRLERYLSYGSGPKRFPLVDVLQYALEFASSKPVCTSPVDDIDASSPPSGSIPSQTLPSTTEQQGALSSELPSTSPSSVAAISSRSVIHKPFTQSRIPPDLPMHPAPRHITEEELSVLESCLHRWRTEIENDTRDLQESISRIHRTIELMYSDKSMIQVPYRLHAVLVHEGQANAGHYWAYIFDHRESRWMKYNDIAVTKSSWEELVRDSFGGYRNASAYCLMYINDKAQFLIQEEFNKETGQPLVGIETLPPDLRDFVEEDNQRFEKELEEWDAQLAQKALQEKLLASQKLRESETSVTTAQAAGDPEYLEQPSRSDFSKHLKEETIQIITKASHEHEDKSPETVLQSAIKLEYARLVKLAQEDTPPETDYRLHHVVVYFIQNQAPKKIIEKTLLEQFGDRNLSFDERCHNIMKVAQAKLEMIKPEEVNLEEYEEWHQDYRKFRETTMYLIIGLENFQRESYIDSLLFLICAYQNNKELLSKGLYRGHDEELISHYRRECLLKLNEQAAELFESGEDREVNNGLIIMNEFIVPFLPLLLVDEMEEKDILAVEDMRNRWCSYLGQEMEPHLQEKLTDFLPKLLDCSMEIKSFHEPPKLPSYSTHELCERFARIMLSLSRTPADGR
Put plainly: USP25 activity by the Ub-Rh110 method. The note with it: purified USP25 15 nM, Ub-Rh110 125 nM; read-out: Inhibitory activity (IC50) USP25. The class given is biochemical. The protocol:
USP25 activity was determined by the Ub-Rh110 method.
Purified USP25 was purchased from R&D Systems. The experimental procedures were the same as those in Example 2. The final concentration of USP25 was 15 nM, the final concentration of the substrate Ub-Rh110 was 125 nM, and the final volume of the whole reaction system was 20 μL.
(§1) With reference to Example 2 and Example 3, USP28 and USP25 inhibitor activity tests were performed on representative example compounds of the present disclosure and the following comparative compound structures.

A further assay deals with T2, USP28 (Homo sapiens, UniProt Q96RU2).
T2 construct: purchased R&D Systems China Co., Ltd. (R&D Systems)
T2 sequence (Q96RU2 1-1077): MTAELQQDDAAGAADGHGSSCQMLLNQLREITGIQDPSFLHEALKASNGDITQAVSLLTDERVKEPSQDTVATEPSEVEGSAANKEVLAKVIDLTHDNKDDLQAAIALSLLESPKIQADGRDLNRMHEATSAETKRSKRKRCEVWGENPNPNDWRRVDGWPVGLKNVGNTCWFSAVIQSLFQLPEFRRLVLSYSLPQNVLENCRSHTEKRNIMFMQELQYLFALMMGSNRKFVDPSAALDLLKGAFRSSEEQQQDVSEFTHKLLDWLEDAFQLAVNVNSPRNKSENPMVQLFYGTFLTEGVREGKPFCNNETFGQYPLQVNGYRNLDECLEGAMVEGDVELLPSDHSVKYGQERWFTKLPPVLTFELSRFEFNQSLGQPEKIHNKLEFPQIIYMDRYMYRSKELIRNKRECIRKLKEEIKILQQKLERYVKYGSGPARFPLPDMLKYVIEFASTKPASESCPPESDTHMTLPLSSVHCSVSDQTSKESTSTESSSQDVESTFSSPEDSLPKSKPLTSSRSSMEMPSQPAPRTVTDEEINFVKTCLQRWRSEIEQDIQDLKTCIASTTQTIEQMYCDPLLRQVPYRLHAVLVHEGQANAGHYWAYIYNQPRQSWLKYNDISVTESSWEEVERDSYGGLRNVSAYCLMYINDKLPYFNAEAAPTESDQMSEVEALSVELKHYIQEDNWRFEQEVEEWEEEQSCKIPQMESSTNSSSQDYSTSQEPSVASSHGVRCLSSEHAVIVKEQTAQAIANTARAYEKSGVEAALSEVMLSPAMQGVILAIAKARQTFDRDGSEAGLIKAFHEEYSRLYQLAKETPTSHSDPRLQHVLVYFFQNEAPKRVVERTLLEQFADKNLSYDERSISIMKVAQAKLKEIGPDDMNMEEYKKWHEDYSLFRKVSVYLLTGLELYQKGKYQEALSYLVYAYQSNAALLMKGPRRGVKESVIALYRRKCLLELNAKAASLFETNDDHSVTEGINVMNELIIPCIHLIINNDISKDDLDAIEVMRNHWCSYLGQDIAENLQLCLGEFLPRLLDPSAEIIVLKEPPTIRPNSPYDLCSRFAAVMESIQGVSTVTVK
In words: USP28 activity by the ubiquitin-rhodamine 110 (Ub-Rh110) method. The class given is biochemical. The note with it: purified USP28 4 nM, Ub-Rh110 125 nM, 30 min preincubation; read-out: Inhibitory activity (IC50) USP28. The protocol: USP28 activity was determined by the ubiquitin-rhodamine 110 (Ub-Rh110) method.
Purified USP28 and a substrate Ub-Rh110 used for determining deubiquitinase activity were purchased from R&D Systems China Co., Ltd. (R&D Systems). First, test compounds were each dissolved in DMSO to prepare a 10 mM stock solution, and then the stock solution was diluted to the desired concentration (with a DMSO content of 0.5%) with a buffer solution [containing 20 mM Tris-HCl (pH 8.0), 2 mM CaCl2), 3 mM BME, 0.01% Prionex, and 0.01% Triton X-100]. The prepared test compound solutions at different concentrations were mixed uniformly with USP28 (final concentration: 4 nM) in a 96-well plate, and the mixture was incubated at r. t. for 30 min before the addition of Ub-Rh110 to 125 nM. The final volume of the whole reaction system was 20 μL. The released fluorescence (excitation wavelength: 485 nm, emission wavelength: 535 nm) was detected immediately on a microplate reader after the addition of the substrate. A blank control group (DMSO instead of test compound) and a substrate group (no USP28 added) were set simultaneously. The inhibitory rates of the test compounds for USP28 were calculated according to the following formula:
Inhibition %=(1−[(fluorescence valuetest compound−fluorescence valuesubstrate)/(fluorescence valuecontrol−fluorescence valuesubstrate])×100%
According to the inhibitory rates of the test compounds for USP28 under different concentrations, IC50 values were calculated.
as §1

With `CCCNc1c(C(=O)NCCc2ccc(N3CC4CCC(C3)N4)cc2)cnc2c1ccn2CC` [Compound I-04], the IC50 on USP25 is more than 10000 nM; on USP28 it was 1000 to 10000 nM.

Take `CCn1ccc2c(NC)c(C(=O)NCCc3ccc(N4CC5CCC(C4)N5)cc3)nnc21` [Compound I-27]: the IC50 at USP25 and on USP28 was less than 50 nM each time.

In the case of `CCn1ccc2c(NC)c(C(=O)N[C@@H]3COc4cc(N5CC6CCC(C5)N6)ccc4C3)cnc21` [Compound I-24], the figures for the IC50 at USP25 and at USP28 were 500 to 1000 nM and 50 to 500 nM, respectively.

With `CCn1ccc2c(NC)c(C(=O)NC[C@@H](C)c3ccc(N4CC5CCC(C4)N5)cc3)cnc21` [Compound I-22], the IC50 was 500 to 1000 nM at USP25 and 50 to 500 nM on USP28.

What is called IC50 is the concentration that gives 50% inhibition.
